Counter-ions that a name gives are not always drawn.

The target in this assay is human FLAP (Homo sapiens (Human), UniProt P20292). Description: FLAP binding assay (HTRF). The note with it: human FLAP-containing membranes, HTRF format; average of two assay plates, duplicates; read-out: FLAP Binding wild type HTRF Ki. The method, then: The ability of the compounds of the present invention to treat a FLAP-mediated disease and/or disorder, or associated symptoms or complications thereof, was determined using the following procedures. Binding assay data represent the average value obtained from two different assay plates, with samples run in duplicate on each plate. Human whole blood assay data represent a single replicate on an assay plate using whole blood from at least one healthy donor.
Chain of human FLAP (P20292 whole entry): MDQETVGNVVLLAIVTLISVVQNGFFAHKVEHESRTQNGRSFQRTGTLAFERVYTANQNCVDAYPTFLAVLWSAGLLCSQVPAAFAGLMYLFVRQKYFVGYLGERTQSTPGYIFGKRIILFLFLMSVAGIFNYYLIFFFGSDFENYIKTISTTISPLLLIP
Data are expressed as a HTRF ratio.
A general note: TR-FRET usually uses a lanthanide donor and a delayed reading to cut background.
As a reminder, the Ki is the equilibrium dissociation constant of an inhibitor or competing ligand from its target. As for `CS(=O)(=O)c1cc(C#N)ccc1Oc1c(C2CCC2)ccc(-c2cnc(N)cn2)c1F` [Example 265, 4-[3-(5-Aminopyrazin-2-yl)-6-cyclobutyl-2-fluorophenoxy]-3-(methylsulfonyl)benzonitrile], the inhibition constant (Ki) was > 10000 nM. Turning to `CN(C)CC(O)COc1c(C2CCC2)ccc(-c2cnc(N)cn2)c1F` (racemic) [Example 307, racemic 1-[3-(5-Aminopyrazin-2-yl)-6-cyclobutyl-2-fluorophenoxy]-3-(dimethylamino)propan-2-ol], the Ki was > 10000 nM. As for `Nc1cnc(-c2ccc(C3CCC3)c(OCC(O)CN3CCNCC3)c2F)cn1` (racemic) [Example 309, racemic 1-[3-(5-Aminopyrazin-2-yl)-6-cyclobutyl-2-fluorophenoxy]-3-piperazin-1-ylpropan-2-ol], the inhibition constant Ki is > 10000 nM. With `Nc1cnc(-c2ccc(C3CCC3)c(OCC3CNC3)c2F)cn1` [Example 301, 5-[3-(Azetidin-3-ylmethoxy)-4-cyclobutyl-2-fluorophenyl]pyrazin-2-amine], the inhibition constant Ki was > 10000 nM.

Take `Cn1cnc(COc2c(C3CCC3)ccc(-c3cnc(N)cn3)c2F)c1` [Example 284, 5-{4-Cyclobutyl-2-fluoro-3-[(1-methyl-1H-imidazol-4-yl)methoxy]phenyl}pyrazin-2-amine trifluoroacetic acid salt]: the inhibition constant (Ki) was > 10000 nM.

For the compound `Nc1cnc(-c2ccc(C3CCC3)c(Oc3ccc(C(F)(F)F)c(C(F)(F)F)c3)c2F)cn1` [Example 120, 5-{3-[3,4-Bis(trifluoromethyl)phenoxy]-4-cyclobutyl-2-fluorophenyl}pyrazin-2-amine], the Ki came to 304 nM. As for `Nc1cnc(-c2ccc(C3CCC3)c(OCC(O)Cn3ccccc3=O)c2F)cn1` (racemic) [Example 51, racemic 1-(3-(3-(5-Aminopyrazin-2-yl)-6-cyclobutyl-2-fluorophenoxy)-2-hydroxypropyl)pyridin-2(1H)-one], the Ki is 324 nM. On to `CS(=O)(=O)c1ccccc1Oc1c(C2CCC2)ccc(-c2cnc(N)cn2)c1F` [Example 117, 5-{4-Cyclobutyl-2-fluoro-3-[2-(methylsulfonyl)phenoxy]phenyl}pyrazin-2-amine], for which the Ki was determined as 2500 nM. In the case of `Nc1cnc(-c2ccc(C3CCC3)c(OCc3cccc(C(F)(F)F)c3Cl)c2F)cn1` [Example 42, 5-(3-{[2-Chloro-3-(trifluoromethyl)benzyl]oxy}-4-cyclobutyl-2-fluorophenyl)pyrazin-2-amine], the Ki came out at 2000 nM. On to `COc1c(C2CCC2)ccc(-c2ccc(N)nn2)c1F` [Example 219, 6-(4-cyclobutyl-2-fluoro-3-methoxyphenyl)pyridazin-3-amine], for which the inhibitory constant (Ki) is > 10000 nM. For `Nc1cnc(-c2ccc(Cl)c(OCc3ccccc3)c2F)cn1` [Example 216, 5-[3-(Benzyloxy)-4-chloro-2-fluorophenyl]pyrazin-2-amine], the Ki came to 866 nM.

In the case of `Nc1cnc(-c2ccc(C3CCC3)c(Oc3cnc(C(F)(F)F)cn3)c2F)cn1` [Example 105, 5-(4-Cyclobutyl-2-fluoro-3-{[5-(trifluoromethyl)pyrazin-2-yl]oxy}phenyl)pyrazin-2-amine], the inhibition constant (Ki) turned out to be 250 nM.

For `Nc1cnc(-c2ccc(C3CCC3)c(OCc3cccc(OC(F)(F)F)c3)c2F)cn1` [Example 9, 5-(4-Cyclobutyl-2-fluoro-3-{[3-(trifluoromethoxy)benzyl]oxy}phenyl)-pyrazin-2-amine], the Ki is 808 nM.

Consider `Nc1cnc(-c2ccc(C3CCC3)c(OCc3cccnn3)c2F)cn1` [Example 288, 5-[4-Cyclobutyl-2-fluoro-3-(pyridazin-3-ylmethoxy)phenyl]pyrazin-2-amine trifluoroacetic acid salt], for which the Ki is 365 nM. For `Cc1ccc(-c2cnc(N)cn2)c(F)c1Oc1nccc(N)n1` [Example 315, 2-[3-(5-Aminopyrazin-2-yl)-2-fluoro-6 methylphenoxy]pyrimidin-4-amine] the value was 1360 nM.

`CN(C)CCOc1c(C2CCC2)ccc(-c2cnc(N)cn2)c1F` [Example 268, 5-{4-Cyclobutyl-3-[2-(dimethylamino)ethoxy]-2-fluorophenyl}pyrazin-2-amine]: the Ki was > 10000 nM. `Nc1cnc(-c2ccc(C3CCC3)c(OCc3ccc(Cl)cc3Cl)c2F)cn1` [Example 40, 5-{4-Cyclobutyl-3-[(2,4-dichlorobenzyl)oxy]-2-fluorophenyl}pyrazin-2-amine]: the Ki stood at 612 nM. For the compound `Nc1cnc(-c2ccc(C3CCC3)c(Oc3ncccc3C(F)(F)F)c2F)cn1` [Example 121, 5-(4-Cyclobutyl-2-fluoro-3-{[3-(trifluoromethyl)pyridin-2-yl]oxy}phenyl)pyrazin-2-amine], the inhibitory constant (Ki) is 250 nM.

Turning to `Nc1cnc(-c2ccc(C3CCC3)c(Oc3ccc(C(F)(F)F)nc3)c2F)cn1` [Example 128, 5-(4-Cyclobutyl-2-fluoro-3-{[6-(trifluoromethyl)pyridin-3-yl]oxy}phenyl)pyrazin-2-amine], the Ki was 297 nM. Consider `Cn1cncc1COc1c(C2CCC2)ccc(-c2cnc(N)cn2)c1F` [Example 285, 5-{4-Cyclobutyl-2-fluoro-3-[(1-methyl-1H-imidazol-5-yl)methoxy]phenyl}pyrazin-2-amine trifluoroacetic acid salt], for which the Ki is > 10000 nM. Take `Nc1cnc(-c2ccc(C3CCC3)c(OCc3ccccc3)c2)cn1` [Example 217, 5-[3-(Benzyloxy)-4-cyclobutylphenyl]pyrazin-2-amine]: the Ki amounted to 1250 nM. Turning to `Nc1cnc(-c2ccc(C3CCC3)c(Oc3ccc(C(F)(F)F)cc3C(F)(F)F)c2F)cn1` [Example 266, 5-{3-[2,4-Bis(trifluoromethyl)phenoxy]-4-cyclobutyl-2-fluorophenyl}pyrazin-2-amine], the inhibition constant Ki was > 10000 nM. Consider `COc1c(C2CCC2)ccc(-c2cnc3[nH]cnc3n2)c1F` [Example 182, 5-(4-cyclobutyl-2-fluoro-3-methoxyphenyl)-1H-imidazo[4,5-b]pyrazine], for which the Ki was determined as 1940 nM. Take `Nc1cnc(-c2ccc(C3CCC3)c(OCc3ccc(F)cc3)c2F)cn1` [Example 28, 5-{4-Cyclobutyl-2-fluoro-3-[(4-fluorobenzyl)oxy]phenyl}pyrazin-2-amine]: the Ki is 304 nM.

For the compound `Nc1cnc(-c2ccc(C3CCC3)c(OCC3CCCNC3)c2F)cn1` (racemic) [Example 299, racemic 5-[4-Cyclobutyl-2-fluoro-3-(piperidin-3-ylmethoxy)phenyl]pyrazin-2-amine], the Ki is > 10000 nM. `Oc1c(C2CCC2)ccc(-c2cc3cc[nH]c3nn2)c1F` [Example 221, 6-cyclobutyl-2-fluoro-3-(7H-pyrrolo[2,3-c]pyridazin-3-yl)phenol]: the inhibition constant Ki was found to be 593 nM. For `CNCC(O)COc1c(C2CCC2)ccc(-c2cnc(N)cn2)c1F` (racemic) [Example 304, racemic 1-[3-(5-Aminopyrazin-2-yl)-6-cyclobutyl-2-fluorophenoxy]-3-(methylamino)propan-2-ol] the value was > 10000 nM. Take `COc1c(C2CCCC2)ccc(-c2cnc(N)cn2)c1F` [Example 211, 5-(4-Cyclopentyl-2-fluoro-3-methoxyphenyl)pyrazin-2-amine]: the inhibition constant Ki turned out to be 527 nM. To `Cc1noc(COc2c(C3CCC3)ccc(-c3cnc(N)cn3)c2F)n1` [Example 75, 5-{4-Cyclobutyl-2-fluoro-3-[(3-methyl-1,2,4-oxadiazol-5-yl)methoxy]phenyl}pyrazin-2-amine] belongs 370 nM. For `CC(C)CCc1ccc(-c2cnc(N)cn2)c(F)c1Oc1nccc(N)n1` [Example 327, 2-(3-(5-Aminopyrazin-2-yl)-2-fluoro-6-isopentylphenoxy)pyrimidin-4-amine] the value was 528 nM.

Take `Nc1cnc(-c2ccc(CC3CCCCC3)c(Oc3nccc(N)n3)c2F)cn1` [Example 326, 2-(3-(5-Aminopyrazin-2-yl)-6-(cyclohexylmethyl)-2-fluorophenoxy)pyrimidin-4-amine]: the Ki is 358 nM.

Turning to `Nc1cnc(-c2ccc(C3CCC3)c(OCC(O)CN3CCNC3=O)c2F)cn1` (racemic) [Example 312, racemic 1-{3-[3-(5-Aminopyrazin-2-yl)-6-cyclobutyl-2-fluorophenoxy]-2-hydroxypropyl}imidazolidin-2-one], the Ki stood at 974 nM. With `Nc1cnc(-c2ccc(C3CCC3)c(OCC(=O)O)c2F)cn1` [Example 50, [3-(5-Aminopyrazin-2-yl)-6-cyclobutyl-2-fluorophenoxy]acetic acid], the Ki turned out to be 1500 nM. To `Nc1cnc(-c2ccc(C3CCC3)c(Oc3cc(C(F)(F)F)ncn3)c2F)cn1` [Example 125, 5-(4-Cyclobutyl-2-fluoro-3-{[6-(trifluoromethyl)pyrimidin-4-yl]oxy}phenyl)pyrazin-2-amine] belongs 250 nM. For `Nc1cnc(-c2ccc(C3CCC3)c(OCC3CCNC3)c2F)cn1` (racemic) [Example 300, racemic 5-[4-Cyclobutyl-2-fluoro-3-(pyrrolidin-3-ylmethoxy)phenyl]pyrazin-2-amine] the value was > 10000 nM; for `CC(C)NCC(O)COc1c(C2CCC2)ccc(-c2cnc(N)cn2)c1F` (racemic) [Example 305, racemic 1-[3-(5-Aminopyrazin-2-yl)-6-cyclobutyl-2-fluorophenoxy]-3-[(1-methylethyl)amino]propan-2-ol], > 10000 nM. For `Nc1cnc(-c2ccc(C3CCC3)c(OCC(O)CO)c2F)cn1` (racemic) [Example 254, 3-(3-(5-Aminopyrazin-2-yl)-6-cyclobutyl-2-fluorophenoxy)propane-1,2-diol], the Ki stood at 992 nM. For the compound `Nc1cnc(-c2ccc(C3CCC3)c(OCc3ccccc3S(F)(F)(F)(F)F)c2F)cn1` [Example 81, 5-(4-Cyclobutyl-2-fluoro-3-{[2-(pentafluoro-lambda~6~- sulfanyl)benzyl]oxy}phenyl)pyrazin-2-amine], the inhibitory constant (Ki) was determined as 394 nM. Regarding `Nc1cnc(-c2ccc(C3CCC3)c(OCc3ccccc3F)c2F)cn1` [Example 30, 5-{4-Cyclobutyl-2-fluoro-3-[(2-fluorobenzyl)oxy]phenyl}pyrazin-2-amine], the Ki is 354 nM.

Values taken from patent US9073876B2, “Flap modulators” (JANSSEN PHARMACEUTICA NV, priority 2013, dated 2015).
